These results are taken from patent US10308607B2, “Fucosidase inhibitors” (HORIZON ORPHAN LLC, priority 2015, dated 2019).

In one data set the target is rhFUCA1 (Homo sapiens (Human), UniProt P04066). Briefly: In vitro fucosidase inhibition (4MU-FUC fluorescence). Type of data set: biochemical. The note with it: 1 ng/mL rhFUCA1, 640 nM 4MU-FUC, pH 4.5, 37° C., 30 minutes. The method, then: Fucosidase inhibition was assessed by preparing a reaction mixture of 50 mM phosphate-citrate pH 4.5, 5 mM MgCl2, 640 nM 4-methylumbelliferyl-alpha-L-fucopyranoside (4MU-FUC), 1 ng/mL rhFUCA1 (R&D Systems), and compound II, III, or IV:
Reactions (100 μL) were incubated at 37° C. for 30 minutes and then quenched with the same volume of 600 mM citrate-carbonate buffer, pH 9. Fluorescence was measured by excitation at 360 nm and emission at 450 nm.

Data set [1] deals with HepG2 cells. Briefly: Metabolic labeling with tagged-fucose, flow cytometry. Type of data set: cell-based, human. To be noted: for Mean Green Fluorescence (GRN-HLog): HepG2, 24 hours compound then 48 hours fucose alkyne, Alexa Fluor 488 Azide; for Fold over vehicle: mean green fluorescence, HepG2. The method, then: Perturbations in glycoprotein metabolism were assayed by growing HepG2 cells without fucosidase inhibitors, or with compound II, III, or IV (see Example 2) for 24 hours, and then adding (3S,4R,5R,6S)-6-ethynyltetrahydro-2H-pyran-2,3,4,5-tetrayl tetra acetate, a per-acetylated analog of fucose containing an alkyne moiety in place of the 5′-methyl group (Click-iT™ Fucose Alkyne, Molecular Probes, Eugene, Oreg.) for an additional 48 hours. Cells were fixed, permeabilized, washed, and stained with Alexa Fluor 488 Azide to orthogonally label glycoproteins incorporating the fucose analog. Cells were then analyzed for fluorescence using a Guava 6HT-2L flow cytometer (ThermoFisher).
(In flow cytometry, cells or beads pass a laser one at a time.)

In data set [2] the test system is HepG2 cells. In words: Cytotoxicity in HepG2 cells (XTT assay). The note with it: HepG2, 24 or 48 hours, compared to compound II. Type of data set: cell-based, human. The method, then: To assess the compounds' cytotoxicity in cells, HepG2 cells were seeded in triplicate in 96-well plates at 1.5e4 cells/well in Minimum Essential Media, 10% FBS and 2 mM L-glutamine. Plated cells were allowed to recover for 48 hours. Medium was then replaced with the same media containing dilutions of compound II or IV (see Example 2), incubated for 24 or 48 hours, and subjected to XTT assay to measure viability (ATCC).

The subject of another data set is fucosidase. The note with it: Li et al. 2008; cited from earlier work.

Sequence of rhFUCA1 (P04066 32-466): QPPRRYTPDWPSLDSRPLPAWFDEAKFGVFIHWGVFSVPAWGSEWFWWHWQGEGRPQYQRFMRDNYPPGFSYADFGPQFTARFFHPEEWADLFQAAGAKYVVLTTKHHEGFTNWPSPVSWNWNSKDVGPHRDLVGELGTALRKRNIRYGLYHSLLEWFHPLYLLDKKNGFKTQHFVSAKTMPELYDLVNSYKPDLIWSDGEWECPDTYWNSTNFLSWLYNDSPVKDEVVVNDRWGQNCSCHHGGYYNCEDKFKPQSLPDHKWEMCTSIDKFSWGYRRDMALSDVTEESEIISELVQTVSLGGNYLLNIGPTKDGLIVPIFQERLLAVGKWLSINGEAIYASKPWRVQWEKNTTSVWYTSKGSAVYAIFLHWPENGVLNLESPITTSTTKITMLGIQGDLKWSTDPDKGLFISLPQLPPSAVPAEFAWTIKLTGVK

With `C[C@@H]1N/C(=C\C(=O)Nc2cccc3c2C(=O)c2ccccc2-3)[C@@H](O)[C@H](O)[C@@H]1O` [Compound IV], on rhFUCA1, the concentration for half-maximal inhibition (IC50) – broadly, the concentration needed to halve the response being measured – came out at 1500 nM. For the same compound, in the data set with HepG2 cells [1], the “Mean Green Fluorescence (GRN-HLog)” value is on record as 12900 and the Fold over vehicle is 4.56. The “cytotoxicity (XTT viability)” value in the data set with HepG2 cells [2] is on record as “reduced cytotoxicity at higher inhibitor concentrations compared to compound II”.
As for `O=C(NC[C@@H]1N[C@@H](CF)[C@@H](O)[C@@H](O)[C@@H]1O)c1cccc2c1C(=O)c1ccccc1-2` [Compound III], at rhFUCA1, the half-maximal inhibitory concentration (IC50) came to 59 nM. Moreover, in the data set with HepG2 cells [1], the “Mean Green Fluorescence (GRN-HLog)” value was determined as 1220 and the Fold over vehicle is reported as 0.43.
Regarding `CCCCN1C[C@H](O)[C@@H](O)[C@H](O)[C@H](C(=O)O)C1` [Faz, (3R,4R,5S,6S)-1-butyl-4,5,6-trihydroxyazepane-3-carboxylic acid], the “potency of fucosidase inhibition” value in the data set on fucosidase is on record as “low nanomolar range”.
